ChEMBL document CHEMBL5729279, “Cycloalkyl-diamines for the treatment of inflammation” (2022)
pKi: −log10 of the molar value.

Biological target: Sigma non-opioid intracellular receptor 1 (Homo sapiens, UniProt Q99720)
Test: Pharmacological Activity: Ki determinations were generously provided by the National Institute of Mental Health's Psychoactive Drug Screening Program (PDSP).

Sigma non-opioid intracellular receptor 1, sequence (Q99720 whole entry): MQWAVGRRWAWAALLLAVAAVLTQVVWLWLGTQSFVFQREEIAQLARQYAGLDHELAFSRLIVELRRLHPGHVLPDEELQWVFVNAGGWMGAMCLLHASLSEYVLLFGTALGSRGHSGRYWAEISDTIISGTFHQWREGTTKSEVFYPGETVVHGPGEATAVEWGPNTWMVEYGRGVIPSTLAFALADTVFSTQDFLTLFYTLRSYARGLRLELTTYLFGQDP

CN[C@@]1(c2ccccc2Cl)CCCCC1NCCCN1CCCC1 (stereo partly specified)
pKi: 7.43
